According to ChEMBL document CHEMBL6127081, “Peptide inhibitors targeting Ras and Ras-associated protein-protein interactions” (Eur J Med Chem, 2024):
pIC50, pKd: −log10 of the molar value. Where a SMILES comes first, the peptide text is derived from it. Bridges are numbered along the chain shown (N, C = ends). [ ]: non-standard residue; d: D form. The star is where a group is joined. hPhe(3,5-F2-4-CF3) = N[C@@H](CCc1cc(F)c(C(F)(F)F)c(F)c1)C(=O)O; hPhe(3-Cl-4-CF3) = N[C@@H](CCc1ccc(C(F)(F)F)c(Cl)c1)C(=O)O; hPhe(4-CF3) = N[C@@H](CCc1ccc(C(F)(F)F)cc1)C(=O)O; NEtPhe(4-Me) = CCN[C@@H](Cc1ccc(C)cc1)C(=O)O; NMePhe(4-Cl) = CN[C@@H](Cc1ccc(Cl)cc1)C(=O)O; Phe(3-Cl) = N[C@@H](Cc1cccc(Cl)c1)C(=O)O; NMeGly(cPent) = CN[C@H](C(=O)O)C1CCCC1; Phe(4-F) = N[C@@H](Cc1ccc(F)cc1)C(=O)O; 2Nal = N[C@@H](Cc1ccc2ccccc2c1)C(=O)O; NMeCha = CN[C@@H](CC1CCCCC1)C(=O)O; NMeF = CN[C@@H](Cc1ccccc1)C(=O)O; NMeD = CN[C@@H](CC(=O)O)C(=O)O; NMeL = CN[C@@H](CC(C)C)C(=O)O; NMeV = CN[C@H](C(=O)O)C(C)C; NMeA = CN[C@@H](C)C(=O)O; Nle = CCCC[C@H](N)C(=O)O; Pyrrolidide = C1CCN(*)C1; Ac5c = NC1(C(=O)O)CCCC1; Aze = O=C(O)[C@@H]1CCN1; β3hA = C[C@H](N)CC(=O)O; Sar = CNCC(=O)O

Test system: not listed separately
Assay: Inhibition of Biotinylated Avi-tagged KRas G12D mutant/GST tagged Raf1-RBD domain (1 to 149 residues) (unknown origin) incubated for 1 hr by TR-FRET assay
Design: species or system Homo sapiens

SMILES | pIC50
CC(C)C[C@@H]1NC(=O)[C@H](CCC(=O)O)NC(=O)[C@H](CC(C)C)NC(=O)[C@@H]2CCCN2C(=O)[C@H](CCCNC(=N)N)NC(=O)[C@H](Cc2ccc(O)cc2)NC(=O)[C@@H]2CCCN2C(=O)[C@H](Cc2ccc(O)cc2)NC(=O)[C@H](CC(N)=O)NC(=O)[C@@H](Cc2ccc(O)cc2)NC(=O)CSC[C@@H](C(=O)NCC(N)=O)NC(=O)[C@H](Cc2ccc(O)cc2)NC(=O)[C@H](Cc2c[nH]c3ccccc23)NC1=O | 4.82
CC[C@H](C)[C@@H]1NC(=O)[C@H](Cc2ccccc2)NC(=O)[C@H](CCCCN)NC(=O)[C@H](CCC(=O)O)NC(=O)[C@H]([C@@H](C)O)NC(=O)[C@H](C(C)C)NC(=O)[C@H]([C@@H](C)CC)NC(=O)[C@H]([C@@H](C)CC)NC(=O)[C@H](Cc2ccc(O)cc2)NC(=O)CSC[C@@H](C(=O)NCC(N)=O)NC(=O)[C@H](Cc2c[nH]cn2)NC(=O)[C@H](Cc2c[nH]cn2)NC(=O)[C@H](C(C)C)NC(=O)[C@H](Cc2c[nH]c3ccccc23)NC1=O | 5.52

Target: SOS1-KRAS (Homo sapiens, UniProt P01116, G12D)
Assay: Inhibition of KRAS G12D mutant/SOS1 (unknown origin) interaction by TR-FRET assay
Type: protein-complex assay

SOS1-KRAS, sequence (P01116 whole entry G12D, looked up): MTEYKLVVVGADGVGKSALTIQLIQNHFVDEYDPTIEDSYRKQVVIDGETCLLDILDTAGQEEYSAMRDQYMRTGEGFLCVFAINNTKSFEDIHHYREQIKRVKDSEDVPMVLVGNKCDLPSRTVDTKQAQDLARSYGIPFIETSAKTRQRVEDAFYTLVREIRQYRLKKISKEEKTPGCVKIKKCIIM

SMILES | pIC50
CC[C@H](C)[C@H](NC(=O)CNC(=O)[C@H](Cc1ccccc1)NC(=O)[C@H](Cc1ccccc1)NC(=O)[C@H](CCCNC(=N)N)NC(=O)[C@H](CCCNC(=N)N)NC(C)=O)C(=O)N[C@@]1(C)CCC/C=C\CCC[C@@](C)(C(=O)N[C@@H](CC(C)C)C(=O)N[C@@H](CCCCN)C(=O)N[C@H](C(=O)N[C@@H](CCC(=O)O)C(=O)N[C@@H](CCC(=O)O)C(=O)NCC(=O)N[C@@H](CC(N)=O)C(N)=O)[C@@H](C)O)NC(=O)[C@@H](CC(N)=O)NC(=O)[C@H]([C@@H](C)O)NC(=O)[C@@H](CC(C)C)NC1=O | 7.44
CC[C@H](C)[C@@H]1NC(=O)[C@H](CC(C)C)N(C)C(=O)C[C@H](C)NC(=O)[C@H](CC(C)C)N(C)C(=O)C2(CCCC2)NC(=O)[C@@H]2CCCN2C(=O)[C@H](CCc2ccc(C(F)(F)F)cc2)NC(=O)CN(C)C(=O)[C@H](CC2CCCCC2)N(C)C(=O)CN(C)C(=O)CN(C)C1=O (cyclo([Ac5c][NMeL][β3hA][NMeL]I[Sar][Sar][NMeCha][Sar][hPhe(4-CF3)]P)) | 6.96
CC[C@H](C)[C@@H]1NC(=O)[C@H](CC(C)C)N(C)C(=O)C[C@H](C)NC(=O)[C@H](C(C)C)N(C)C(=O)C2(CCCC2)NC(=O)[C@@H]2CCCN2C(=O)[C@H](CCc2ccc(C(F)(F)F)c(Cl)c2)NC(=O)CN(C)C(=O)[C@H](CC2CCCCC2)N(C)C(=O)[C@@H]2CCN2C(=O)[C@H](C)N(C)C1=O (cyclo([Ac5c][NMeV][β3hA][NMeL]I[NMeA][Aze][NMeCha][Sar][hPhe(3-Cl-4-CF3)]P)) | 7.62
C[C@@H](NC(=O)[C@H](Cc1ccccc1)NC(=O)[C@@H](CCCNC(=N)N)NC(=O)[C@H](CCCN)NC(=O)[C@@H]1CNC(=O)c2cc3cc(c2)C(=O)N[C@H](Cc2ccc4ccccc4c2)C(=O)N[C@@H](CO)C(=O)N[C@@H](CC(N)=O)C(=O)N[C@H](Cc2ccc4ccccc4c2)C(=O)N[C@@H](c2ccccc2)C(=O)N[C@@H](CCCCNC3=O)C(=O)N[C@H](Cc2ccccc2)C(=O)N[C@@H](CCC(N)=O)C(=O)N[C@H](CCCNC(=N)N)C(=O)CN[C@@H](CCCNC(=N)N)C(=O)N1)C(N)=O | 6.92
CC[C@H](C)[C@@H]1NC(=O)[C@H](CC(C)C)N(C)C(=O)C[C@@H](C(=O)N(C)C)N(C)C(=O)[C@H](C2CCCC2)N(C)C(=O)C2(CCCC2)NC(=O)[C@@H]2CCCN2C(=O)[C@H](CCc2cc(F)c(C(F)(F)F)c(F)c2)NC(=O)CN(C)C(=O)[C@H](Cc2ccc(C)cc2)N(CC)C(=O)[C@@H]2CCN2C(=O)[C@H](C)N(C)C1=O ([NMeL]I[NMeA][Aze][NEtPhe(4-Me)][Sar][hPhe(3,5-F2-4-CF3)]P[Ac5c][NMeGly(cPent)][NMeD]-NMe2; lactam N-11) | > 8.70
CC[C@H](C)[C@@H]1NC(=O)[C@H](C)N(C)C(=O)C[C@@H](C(=O)N2CCCC2)NC(=O)[C@H](C(C)C)N(C)C(=O)[C@H](Cc2ccccc2)N(C)C(=O)[C@H](Cc2c[nH]c3ccccc23)NC(=O)[C@H](Cc2cccc(Cl)c2)NC(=O)CN(C)C(=O)[C@H](Cc2ccc(Cl)cc2)N(C)C(=O)CN(C)C(=O)CN(C)C1=O ([NMeA]I[Sar][Sar][NMePhe(4-Cl)][Sar][Phe(3-Cl)]W[NMeF][NMeV]D-Pyrrolidide; lactam N-11) | 7.27
CC[C@H](C)[C@@H]1NC(=O)[C@H](C)N(C)C(=O)C[C@@H](C(=O)N2CCCC2)NC(=O)[C@H](CC(C)C)N(C)C(=O)[C@H](Cc2ccccc2)N(C)C(=O)[C@H](CC(C)C)NC(=O)[C@H](CCc2ccc(C(F)(F)F)cc2)NC(=O)CN(C)C(=O)[C@H](Cc2ccc(Cl)cc2)N(C)C(=O)CN(C)C1=O ([NMeA]I[Sar][NMePhe(4-Cl)][Sar][hPhe(4-CF3)]L[NMeF][NMeL]D-Pyrrolidide; lactam N-10) | 7.74
CC[C@H](C)[C@@H]1NC(=O)[C@H](CC(C)C)N(C)C(=O)C[C@H](C)NC(=O)[C@H](C(C)C)N(C)C(=O)C2(CCCC2)NC(=O)[C@@H]2CCCN2C(=O)[C@H](CCc2ccc(C(F)(F)F)c(Cl)c2)NC(=O)CN(C)C(=O)[C@H](CC2CCCCC2)N(C)C(=O)CN(C)C1=O (cyclo([Ac5c][NMeV][β3hA][NMeL]I[Sar][NMeCha][Sar][hPhe(3-Cl-4-CF3)]P)) | 7.96

Target: GTPase KRas/RAF1 (Homo sapiens, UniProt P01116)
Assay: Inhibition of KRAS/RAF interaction (unknown origin) by HTRF assay
Type: protein assay

GTPase KRas/RAF1, sequence (P04049 whole entry): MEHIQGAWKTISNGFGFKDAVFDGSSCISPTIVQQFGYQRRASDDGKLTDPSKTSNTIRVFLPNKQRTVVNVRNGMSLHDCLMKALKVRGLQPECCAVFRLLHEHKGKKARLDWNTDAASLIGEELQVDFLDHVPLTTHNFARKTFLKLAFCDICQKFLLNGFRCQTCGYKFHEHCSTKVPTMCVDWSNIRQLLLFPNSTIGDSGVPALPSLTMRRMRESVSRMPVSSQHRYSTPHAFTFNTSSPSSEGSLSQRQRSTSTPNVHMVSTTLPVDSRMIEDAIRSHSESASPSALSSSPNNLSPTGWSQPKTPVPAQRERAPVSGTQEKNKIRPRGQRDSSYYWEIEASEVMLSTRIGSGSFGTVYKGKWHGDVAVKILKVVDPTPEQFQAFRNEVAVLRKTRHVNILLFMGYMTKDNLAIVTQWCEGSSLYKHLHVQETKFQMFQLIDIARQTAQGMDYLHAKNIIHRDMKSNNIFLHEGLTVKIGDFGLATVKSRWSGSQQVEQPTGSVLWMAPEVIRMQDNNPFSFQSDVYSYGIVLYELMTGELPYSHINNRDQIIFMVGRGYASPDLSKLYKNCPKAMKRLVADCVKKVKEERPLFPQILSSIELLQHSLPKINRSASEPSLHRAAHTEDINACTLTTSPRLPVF
GTPase KRas/RAF1, sequence (P01116 whole entry): as the sequence (P01116 whole entry G12D, looked up) above, with D12G counted along it

SMILES | pIC50
CCCC[C@@H]1NC(=O)[C@H](Cc2ccc(F)cc2)NC(=O)[C@H](CCCNC(=N)N)NC(=O)[C@H](Cc2ccc3ccccc3c2)NC(=O)[C@H](CCCNC(=N)N)NC(=O)[C@H](CCCNC(=N)N)NC(=O)[C@H](CCCNC(=N)N)NC(=O)[C@H](C)NC(=O)[C@H]([C@@H](C)O)NC(=O)[C@H](Cc2c[nH]c3ccccc23)NC(=O)[C@H](CCC(N)=O)NC1=O (cyclo([2Nal]R[Phe(4-F)][Nle]QWTARRR)) | 6.92
CCCC[C@@H]1NC(=O)[C@H](Cc2ccc(F)cc2)NC(=O)[C@H](CCCNC(=N)N)NC(=O)[C@H](Cc2ccc3ccccc3c2)NC(=O)[C@H](CCCNC(=N)N)NC(=O)[C@H](CCCNC(=N)N)NC(=O)[C@H](CCC(N)=O)NC(=O)[C@H](C)NC(=O)[C@H]([C@@H](C)O)NC(=O)[C@H](Cc2c[nH]c3ccccc23)NC(=O)[C@H](CO)NC1=O (cyclo([2Nal]R[Phe(4-F)][Nle]SWTAQRR)) | 6.19

Target: T1, GTPase KRas (Homo sapiens, UniProt P01116)
Assay: Binding affinity to KRas (unknown origin) assessed as dissociation constant

T1 sequence (P01116 whole entry): as the sequence (P01116 whole entry G12D, looked up) above, with D12G counted along it

SMILES | pKd
Cc1[nH]c2cc(Cl)cc(Cl)c2c1CCN | ~2.96

Target: T1, GTPase KRas
Assay: Inhibition of KRas (unknown origin)

SMILES | pIC50
CC(C)C[C@H](NC(=O)C1CCCOCc2cnnn2CCC(=O)NCC(=O)N2CCCC[C@H]2C(=O)N[C@@H](Cc2cccc3ccccc23)C(=O)N1)C(N)=O (some centres not stated) | 5.11
CC[C@H](C)[C@@H]1NC(=O)[C@@H]2CCCN2C(=O)CNC(=O)CCn2nncc2COCCCC(C(=O)N[C@@H](CC(C)C)C(N)=O)NC1=O (some centres not stated) | 4.00
CC[C@H](C)[C@@H]1NC(=O)[C@@H]2CCCN2C(=O)[C@H](Cc2ccc(O)cc2)NC(=O)[C@@H](NC(=O)[C@H](CC(=O)O)NC(=O)[C@H](Cc2ccc(O)cc2)NC(=O)[C@H](Cc2ccccc2)NC(=O)[C@H](Cc2c[nH]cn2)NC(=O)[C@@H](N)Cc2ccccc2)CC#CC[C@@H](C(=O)N[C@@H](CC(C)C)C(=O)N[C@H](C(=O)N2CCC[C@H]2C(=O)N2CCC[C@H]2C(N)=O)[C@@H](C)CC)NC1=O | 7.64
CC(C)C[C@H](NC(=O)C1CCCOCc2cnnn2CCC(=O)NCC(=O)N2CCC[C@H]2C(=O)N[C@@H](Cc2cccc3ccccc23)C(=O)N1)C(N)=O (some centres not stated) | 5.15
